{
  "source": "paper PMC13372822",
  "about": "(The EMBO Journal, 2026)",
  "key": {"[1]": {"system": "mock-transfected HEK293 cells", "experiment": "Calcium assay in mock-transfected (empty vector) HEK293 cells", "type": "cell-based", "text": "Figure. R3 | Activity of the compounds on OXGR1 using calcium assays.\nConcentration-response curves of the four agonists in activating OXGR1 through the calcium assays. HEK293 cells were transfected with OXGR1 or empty vector by electroporation.\nCells were then loaded with Fluo-4 AM and intracellular calcium changes after stimulation with different compounds were monitored. Responses were normalized to 100% for the maximal response of each compound on OXGR1. Data are mean ± S.E.M. from three independent experiments (n = 3), with three technical replicates performed for each […]\n(1 picture or pasted object on this page, not shown here)"}, "[2]": {"target": "T1, SUCR1 mutants (variant named in the endpoint) (Homo sapiens, UniProt Q9BXA5, F72Y)", "T1 construct": "The full-length human SUCR1 and mutations were fused after the HA signal peptide and Flag tag; HA signal peptide (N); Flag (N); expressed in transfected cells; host or cells: HEK293 stably expressing Gα16 (pcDNA6.0, transient electroporation)", "T1 sequence (Q9BXA5 1-334 F72Y)": "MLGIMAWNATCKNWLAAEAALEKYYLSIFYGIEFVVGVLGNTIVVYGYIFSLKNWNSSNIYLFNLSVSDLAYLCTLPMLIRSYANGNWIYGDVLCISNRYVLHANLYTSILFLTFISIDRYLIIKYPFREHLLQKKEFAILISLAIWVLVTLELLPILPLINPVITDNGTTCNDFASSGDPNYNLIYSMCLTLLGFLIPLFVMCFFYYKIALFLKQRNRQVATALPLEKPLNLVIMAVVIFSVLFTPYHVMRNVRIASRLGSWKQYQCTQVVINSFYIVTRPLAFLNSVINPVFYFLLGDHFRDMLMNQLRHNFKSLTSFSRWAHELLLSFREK", "experiment": "Calcium mobilization assay, SUCR1 mutants in HEK293 stably expressing Gα16;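 as to Emax: percent of the maximal response to succinate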", "type": "cell-based", "description": "(§1) The full-length human SUCR1 and mutations were fused after the HA signal peptide and Flag tag. The constructs were cloned into pcDNA6.0 vector for HEK293 system.\n(§2) HEK293 cells were obtained from ATCC (Manassas, VA, USA) and cultured in DMEM supplemented with 10% (v/v) FBS, 100 mg/L penicillin, and 100 mg/L streptomycin in 5% CO2 at 37 °C. For transient transfection, ~2.5 × 10^6 cells were mixed with 2 µg plasmids in 200 µL transfection buffer, and electroporation was carried out with a Scientz-2C electroporation apparatus (Scientz Biotech, Ningbo, China). The experiments were carried out 24 h after transfection. HEK293 cell lines stably expressing Gα16 were constructed by our laboratory.\n(§3) For OXGR1, plasmids were transfected into HEK293 (other receptors were transfected into HEK293 stably expressing Gα16) and seeded at a density of 4 × 10^4 per well into 96-well culture plates and incubated for 24 h at 37 °C in 5% CO2. The next day, Cells were incubated with 2 μM/L Fluo-4 AM in HBSS supplemented with 5.6 mM/L D-glucose and 250 μM/L sulfinpyrazone at 37 °C for 45 min. […] Three independent measurements were repeated, i.e., three different transfections, with three technical replicates performed for each experiment. EC50 and Emax values for each curve were calculated by Prism 8.0 software (GraphPad Software)."}, "[3]": {"target": "T2, SUCR1 mutants (variant named in the endpoint) (Homo sapiens, UniProt Q9BXA5, F285A/F72Y/Y248F)", "T2 construct": "The full-length human SUCR1 and mutations were fused after the HA signal peptide and Flag tag; HA signal peptide (N); Flag (N); expressed in transfected cells; host or cells: HEK293 stably expressing Gα16 (pcDNA6.0, transient electroporation)", "T2 sequence (Q9BXA5 1-334 F72Y/Y248F/F285A)": "T1 sequence (Q9BXA5 1-334 F72Y) with Y248F, F285A", "experiment": "Calcium mobilization assay, SUCR1 mutants in HEK293 stably expressing Gα16", "type": "cell-based", "description": "as §1, §2, §3"}, "[4]": {"target": "T3, SUCR1 mutants (variant named in the endpoint) (Homo sapiens, UniProt Q9BXA5, F285A/F72Y/L102F)", "T3 construct": "The full-length human SUCR1 and mutations were fused after the HA signal peptide and Flag tag; HA signal peptide (N); Flag (N); expressed in transfected cells; host or cells: HEK293 stably expressing Gα16 (pcDNA6.0, transient electroporation)", "T3 sequence (Q9BXA5 1-334 F72Y/L102F/F285A)": "T1 sequence (Q9BXA5 1-334 F72Y) with L102F, F285A", "experiment": "Calcium mobilization assay, SUCR1 mutants in HEK293 stably expressing Gα16", "type": "cell-based", "description": "as §1, §2, §3"}, "[5]": {"target": "T4, SUCR1 mutants (variant named in the endpoint) (Homo sapiens, UniProt Q9BXA5, F285A)", "T4 construct": "The full-length human SUCR1 and mutations were fused after the HA signal peptide and Flag tag; HA signal peptide (N); Flag (N); expressed in transfected cells; host or cells: HEK293 stably expressing Gα16 (pcDNA6.0, transient electroporation)", "T4 sequence (Q9BXA5 1-334 F285A)": "T1 sequence (Q9BXA5 1-334 F72Y) with Y72F, F285A", "experiment": "Calcium mobilization assay, SUCR1 mutants in HEK293 stably expressing Gα16", "type": "cell-based", "description": "as §1, §2, §3"}, "[6]": {"target": "T5, SUCR1 mutants (variant named in the endpoint) (Homo sapiens, UniProt Q9BXA5, F175L/I157M)", "T5 construct": "The full-length human SUCR1 and mutations were fused after the HA signal peptide and Flag tag; HA signal peptide (N); Flag (N); expressed in transfected cells; host or cells: HEK293 stably expressing Gα16 (pcDNA6.0, transient electroporation)", "T5 sequence (Q9BXA5 1-334 I157M/F175L)": "T1 sequence (Q9BXA5 1-334 F72Y) with Y72F, I157M, F175L", "experiment": "Calcium mobilization assay, SUCR1 mutants in HEK293 stably expressing Gα16", "type": "cell-based", "description": "as §1, §2, §3"}, "[7]": {"target": "T6, SUCR1 mutants (variant named in the endpoint) (Homo sapiens, UniProt Q9BXA5, F175L)", "T6 construct": "The full-length human SUCR1 and mutations were fused after the HA signal peptide and Flag tag; HA signal peptide (N); Flag (N); expressed in transfected cells; host or cells: HEK293 stably expressing Gα16 (pcDNA6.0, transient electroporation)", "T6 sequence (Q9BXA5 1-334 F175L)": "T1 sequence (Q9BXA5 1-334 F72Y) with Y72F, F175L", "experiment": "Calcium mobilization assay, SUCR1 mutants in HEK293 stably expressing Gα16", "type": "cell-based", "conditions": "for EC50: SUCR1 F175L", "description": "as §1, §2, §3"}, "OXGR1": {"target": "OXGR1 (Homo sapiens, UniProt Q96P68)", "experiment": "Calcium mobilization assay (Fluo-4 AM), wild-type OXGR1 in HEK293", "conditions": "for signal at concentrations exceeding the reported range: bell-shaped response curve; for activity in OXGR1-transfected HEK293 cells: in words", "description": "as §1, §2, §3"}, "[8]": {"conditions": "HEK293, OXGR1 WT, each ligand normalized to WT (100%)"}, "[9]": {"conditions": "HEK293, OXGR1 WT, normalized to the maximal response elicited by AKG (100%)"}},
  "note": "Numbering of substitutions follows the chain as printed.",
  "data": [
    {"molecule": "C=C(CC(=O)O)C(=O)O", "note": "[ITA, itaconate]", "values": [
      {"measurement": "activity in mock-transfected cells", "setting": "[1]", "value": "no activity"},
      {"measurement": "Emax", "setting": "[2]; HEK293, SUCR1 F72Y, Emax relative to the SUC", "value": "3 ± 3", "unit": "%"},
      {"measurement": "Emax", "setting": "[3]; HEK293, SUCR1 F72Y-F285A-Y248F, Emax relative to the SUC", "value": "2.2 ± 2", "unit": "%"},
      {"measurement": "Emax", "setting": "[4]; HEK293, SUCR1 F72Y-L102F-F285A, Emax relative to the SUC", "value": "43 ± 5", "unit": "%"},
      {"measurement": "Emax", "setting": "[5]; HEK293, SUCR1 F285A, Emax relative to the SUC", "value": "6.3 ± 3", "unit": "%"},
      {"measurement": "Emax", "setting": "[6]; HEK293, SUCR1 F175L-I157M, Emax relative to the SUC", "value": "-3.1 ± 4", "unit": "%"},
      {"measurement": "EC50", "setting": "[7]", "value": "340 ± 300", "unit": "µM"},
      {"measurement": "ITA responsiveness of SUCR1-F175L", "setting": "[7]; in words", "value": "partial ITA responsiveness"},
      {"measurement": "EC50", "setting": "OXGR1; EC50, OXGR1 WT, Gq-mediated calcium signaling (Fig. 1D, Appendix Table S1)", "value": 83, "unit": "µM"},
      {"measurement": "Emax", "setting": "OXGR1; [8]", "value": "100 ± 10", "unit": "%"},
      {"measurement": "Emax", "setting": "OXGR1; [9]", "value": "117 ± 4", "unit": "%"},
      {"measurement": "signal at concentrations exceeding the reported range", "setting": "OXGR1", "value": "decrease in signal"},
      {"measurement": "activity in OXGR1-transfected HEK293 cells", "setting": "OXGR1", "value": "robust activity"}
    ]},
    {"molecule": "O=C(O)CCC(=O)C(=O)O", "note": "[AKG, α-ketoglutarate]", "values": [
      {"measurement": "activity in mock-transfected cells", "setting": "[1]", "value": "no activity"},
      {"measurement": "Emax", "setting": "[2]; HEK293", "value": "4.1 ± 2", "unit": "%"},
      {"measurement": "Emax", "setting": "[3]; HEK293", "value": "19 ± 2", "unit": "%"},
      {"measurement": "Emax", "setting": "[4]; HEK293", "value": "5 ± 1", "unit": "%"},
      {"measurement": "Emax", "setting": "[5]; HEK293", "value": "1.7 ± 3", "unit": "%"},
      {"measurement": "Emax", "setting": "[6]; HEK293", "value": "-6.6 ± 3", "unit": "%"},
      {"measurement": "Emax", "setting": "[7]; HEK293", "value": "3.5 ± 1", "unit": "%"},
      {"measurement": "Emax", "setting": "OXGR1; HEK293", "value": "100 ± 11", "unit": "%"},
      {"measurement": "signal at concentrations exceeding the reported range", "setting": "OXGR1", "value": "decrease in signal"},
      {"measurement": "activity in OXGR1-transfected HEK293 cells", "setting": "OXGR1", "value": "robust activity"}
    ]},
    {"molecule": "O=C(O)CCC(=O)O", "note": "[SUC, succinate]", "values": [
      {"measurement": "activity in mock-transfected cells", "setting": "[1]", "value": "no activity"},
      {"measurement": "EC50", "setting": "[2]; SUCR1 F72Y", "value": "1800 ± 300", "unit": "µM"},
      {"measurement": "EC50", "setting": "[3]; SUCR1 F72Y-F285A-Y248F", "value": "2700 ± 780", "unit": "µM"},
      {"measurement": "EC50", "setting": "[4]; SUCR1 F72Y-L102F-F285A", "value": "3900 ± 1300", "unit": "µM"},
      {"measurement": "EC50", "setting": "[5]; SUCR1 F285A", "value": "3600 ± 800", "unit": "µM"},
      {"measurement": "EC50", "setting": "[6]; SUCR1 F175L-I157M", "value": "150 ± 9", "unit": "µM"},
      {"measurement": "EC50", "setting": "[7]", "value": "18 ± 3", "unit": "µM"},
      {"measurement": "Emax", "setting": "OXGR1; [8]", "value": "100 ± 4", "unit": "%"},
      {"measurement": "Emax", "setting": "OXGR1; [9]", "value": "154 ± 4", "unit": "%"},
      {"measurement": "activity in OXGR1-transfected HEK293 cells", "setting": "OXGR1", "value": "robust activity"}
    ]}
  ]
}
